Results on seven compounds are retold here after patent US20230286973A1, “PROTEIN SECRETION INHIBITORS” (KEZAR LIFE SCIENCES, priority 2020, published 2023).

Series [1] has as its system PD1-ss+10aa/Gaussia Luciferase. In words: Dox-Induced PD1-ss-Gluc Assay. Particulars: 24 hr Dox induction, 293FRT/TO cells, read-out: 24 hr Dox Inducible PD1ssGluc 293FRT/TO: Mean IC50. The format is cell-based. Summed up: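 Doxycycline-induced expression of a PD1-ss+10aa/Gaussia luciferase reporter is measured in stable Flp-In 293 T-REx cells. Compound dilutions containing doxycycline are added one day after plating and incubated at 37 °C, 5% CO2. Values for unassigned stereocentres refer to stereoisomer mixtures.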

The test system of series [2] is TNFα-FL/Gaussia Luciferase. The series can be described thus: Dox Induced TNFα-FL-Gluc Assay. The format is cell-based. Particulars: for IC50: 24 hr Dox induction, 293FRT/TO cells, read-out: 24 hr Dox Inducible TNFaFLGluc 293FRT/TO: Mean IC50; for 24 hr Dox Inducible TNFaFLGluc 293FRT/TO: TNF/PD1: ratio of TNFaFLGluc IC50 to PD1ssGluc IC50. The method, boiled down: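 Stereoisomer mixtures were tested where stereochemistry is not drawn. Induction used doxycycline added together with compound dilutions in DMSO/media to Flp-In 293 T-REx cells carrying a T-REx-regulated TNFα (aa 1-233)-Gaussia luciferase construct, then incubated at 37 °C, 5% CO2.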

Series [3] has as its system HER3-ss+4aa/Gaussia Luciferase. In words: Dox-Induced Her3-ss-Gluc Assay. The format is cell-based. Particulars: 24 hr Dox induction, 293FRT/TO cells, read-out: 24 hr Dox Inducible Her3(ss + 4)Gluc 293FRT/TO: Mean IC50. Summed up: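 Cells were seeded a day ahead, then given compound diluted in DMSO/media with doxycycline to induce expression of the HER3 signal sequence (+4 aa)–Gaussia luciferase fusion. Incubation was at 37° C., 5% CO2, in a stable Flp-In 293 T-REx line.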

The test system of series [4] is IL-2-FL/Gaussia Luciferase. In words: Dox Induced IL2-FL-Gluc Assay. The format is cell-based. The following applies: for IC50: 24 hr Dox induction, 293FRT/TO cells, read-out: 24 hr Dox Inducible IL2FLGluc 293FRT/TO: Mean IC50; for 24 hr Dox Inducible IL2FLGluc 293FRT/TO: IL2/PD1: ratio of IL2FLGluc IC50 to PD1ssGluc IC50. The method, boiled down: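 Cells are plated one day ahead, then receive compound dilutions in DMSO/media with doxycycline and incubate at 37° C, 5% CO2. They are Flp-In 293 T-REx cells expressing a full-length IL-2 (amino acids 1-153)–Gaussia luciferase fusion under T-REx control.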

The subject of series [5] is multiple myeloma cell line NCI-H929. The series can be described thus: H929 Cell Viability Assay. The following applies: Homo sapiens, NCI-H929, 48 h, NCI-H929 cells, Celltiter-Glo. The format is cell-based, human. The method, boiled down: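 Luminescent ATP detection (CellTiter-Glo) after 48 hours of compound exposure measures viability. Cells were plated in RPMI 1640 containing 10% fetal bovine serum and kept at 37° C under 5% CO2.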

Series [6] has as its system multiple myeloma cell line U266B1. In words: U266 Cell Viability Assay. The format is cell-based, human. Particulars: Homo sapiens, U-266, 48 h, U266B1 cells, Celltiter-Glo. The method, boiled down:
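Steps: culture in RPMI 1640 plus 10% FBS and 2 mM glutamine; plate and add compound dilutions; incubate 48 hours at 37° C., 5% CO2; add CellTiter-Glo and quantify luciferase signal.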

Series [7] is described as follows: Liver Microsome Stability Assay (rat). Particulars: rat liver microsomes, with NADPH, 1.0 uM compound.
Protocol: (§1) Stability of a compound was assessed in the presence of liver microsomes from various sources—mouse, rat, monkey and human liver microsomes. 1.0 uM compound, 0.4% DMSO in 0.1 M Potassium Phosphate with 1.0 mg/mL liver microsomes, were incubated at 37° C. with or without 1 mM NADPH. The samples were quenched at 0, and 30 minutes.
Series [8] is described as follows: Liver Microsome Stability Assay (mouse). Particulars: mouse liver microsomes, with NADPH, 1.0 uM compound.
Protocol: as §1
Series [9] is described as follows: Liver Microsome Stability Assay (human). The following applies: human liver microsomes, with NADPH, 1.0 uM compound.
Protocol: as §1
Series [10] in a line: Liver Microsome Stability Assay (monkey). Particulars: monkey liver microsomes, with NADPH, 1.0 uM compound.
Protocol: as §1
[11] abbreviates: '<=>' given where both are I.A.

Where two headings read alike, the source gives them in different places.

With `NC(=O)c1ccc(N2CCC[C@@H]2c2csc(NC(=O)c3cccn3CC3CCOCC3)n2)cc1` [Compound C105, (R)-N-(4-(1-(4-carbamoylphenyl)pyrrolidin-2-yl)thiazol-2-yl)-1-((tetrahydro-2H-pyran-4-yl)methyl)-1H-pyrrole-2-carboxamide], the IC50 in series [1] (mean) was 36 nM; in series [2] (mean), 900 nM; in [3] (mean) it was 107 nM; in series [4] (mean), 157 nM. Besides, in [2] (setting [11]), the “24 hr Dox Inducible TNFaFLGluc 293FRT/TO: TNF/PD1” value is recorded as 25. The “24 hr Dox Inducible IL2FLGluc 293FRT/TO: IL2/PD1” value in series [4] (setting [11]) is 4.4. In addition, the EC50 in [5] was 3650 nM; in [6], more than 25000 nM. Besides, in series [7], the “Liver Microsome Stability (Multiple Species): Rat - % Remaining after 30 min w/NADPH” value stood at 1.71%. In addition, the “Liver Microsome Stability (Multiple Species): Mouse - % Remaining after 30 min w/NADPH” value in series [8] is given as 1.99%. Also, the “Liver Microsome Stability (Multiple Species): Human - % Remaining after 30 min w/NADPH” value in [9] is 0.19%. For the same compound, the “Liver Microsome Stability (Multiple Species): Monkey - % Remaining after 30 min w/NADPH” value in [10] is recorded as 0.67%.

As to `O=C(Nc1ccc(N2CCC[C@@H]2c2csc(NC(=O)c3cccn3Cc3ccnc(F)c3)n2)cc1)O[C@H]1CCOC1` [Compound A174, (S)-tetrahydrofuran-3-yl (4-((R)-2-(2-(1-((2-fluoropyridin-4-yl)methyl)-1H-pyrrole-2-carboxamido)thiazol-4-yl)pyrrolidin-1-yl)phenyl)carbamate], the IC50 in series [1] was determined as 2.62 nM; in series [2] it was 81.1 nM; in series [3] it was 6.19 nM; in series [4] it was 8.01 nM. Moreover, the “24 hr Dox Inducible TNFaFLGluc 293FRT/TO: TNF/PD1” value in [2] came to 30.9. Moreover, the “24 hr Dox Inducible IL2FLGluc 293FRT/TO: IL2/PD1” value in series [4] came out at 3.1. Further, the values for the half-maximal effective concentration (EC50) in series [5] and in series [6] were 77.4 nM and more than 25000 nM, respectively. In addition, the “Liver Microsome Stability (Multiple Species): Rat - % Remaining after 30 min w/NADPH” value in [7] was 42.5%. Also, the “Liver Microsome Stability (Multiple Species): Mouse - % Remaining after 30 min w/NADPH” value in series [8] was determined as 29.4%. Moreover, the “Liver Microsome Stability (Multiple Species): Human - % Remaining after 30 min w/NADPH” value in [9] came out at 38%. Besides, the “Liver Microsome Stability (Multiple Species): Monkey - % Remaining after 30 min w/NADPH” value in series [10] is given as 15.4%.

As to `N#CC[C@H](O)Cn1cccc1C(=O)Nc1nc([C@H]2CCCN2c2ccccc2)cs1` [Compound C100, 1-((S)-3-cyano-2-hydroxypropyl)-N-(4-((R)-1-phenylpyrrolidin-2-yl)thiazol-2-yl)-1H-pyrrole-2-carboxamide], the IC50 in series [1] (mean) is 7640 nM; in [2] (mean), more than 25000 nM; in [3] (mean), 15900 nM; in series [4] (mean) it was 6460 nM. Also, the “24 hr Dox Inducible TNFaFLGluc 293FRT/TO: TNF/PD1” value in [2] (setting [11]) is recorded as more than 3.27. For the same compound, the “24 hr Dox Inducible IL2FLGluc 293FRT/TO: IL2/PD1” value in [4] (setting [11]) is 0.85. Further, the EC50 in series [5] and in series [6] was more than 25000 nM throughout. The “Liver Microsome Stability (Multiple Species): Rat - % Remaining after 30 min w/NADPH” value in series [7] is reported as 13.6%. Besides, the “Liver Microsome Stability (Multiple Species): Mouse - % Remaining after 30 min w/NADPH” value in series [8] was determined as 19.8%. The “Liver Microsome Stability (Multiple Species): Human - % Remaining after 30 min w/NADPH” value in series [9] is given as 19.1%. Moreover, the “Liver Microsome Stability (Multiple Species): Monkey - % Remaining after 30 min w/NADPH” value in [10] amounted to 18.5%.

`COc1ccc(O[C@H]2CC[C@H](c3csc(NC(=O)c4cccn4Cc4ccncc4)n3)C2)nc1` [Compound E38, N-(4-((1S,3S)-3-((5-methoxypyridin-2-yl)oxy)cyclopentyl)thiazol-2-yl)-1-(pyridin-4-ylmethyl)-1H-pyrrole-2-carboxamide]: the IC50 in series [1] (mean) was determined as 493 nM; in [2] (mean), 5280 nM; in series [3] (mean), 1120 nM; in [4] (mean) it was 1870 nM. The “24 hr Dox Inducible TNFaFLGluc 293FRT/TO: TNF/PD1” value in [2] (setting [11]) amounted to 10.7. For the same compound, the “24 hr Dox Inducible IL2FLGluc 293FRT/TO: IL2/PD1” value in [4] (setting [11]) came out at 3.8. The values for the EC50 in series [5] and in [6] were 23800 nM and 23000 nM, respectively. The “Liver Microsome Stability (Multiple Species): Rat - % Remaining after 30 min w/NADPH” value in [7] amounted to 0.33%. For the same compound, in series [8], the “Liver Microsome Stability (Multiple Species): Mouse - % Remaining after 30 min w/NADPH” value turned out to be 0.25%. For the same compound, the “Liver Microsome Stability (Multiple Species): Human - % Remaining after 30 min w/NADPH” value in series [9] was 0.1%. Besides, the “Liver Microsome Stability (Multiple Species): Monkey - % Remaining after 30 min w/NADPH” value in [10] stood at 0.13%.

Turning to `CC(C)n1cnc(-c2ccccc2-c2csc(NC(=O)c3cccn3Cc3ccnc(F)c3)n2)c1` [Compound A169, 1-((2-fluoropyridin-4-yl)methyl)-N-(4-(2-(1-isopropyl-1H-imidazol-4-yl)phenyl)thiazol-2-yl)-1H-pyrrole-2-carboxamide], the IC50 was found to be 967 nM in series [1], 6900 nM in [2], 1640 nM in series [3] and 2170 nM in [4]. Besides, the “24 hr Dox Inducible TNFaFLGluc 293FRT/TO: TNF/PD1” value in series [2] was found to be 7.13. Further, the “24 hr Dox Inducible IL2FLGluc 293FRT/TO: IL2/PD1” value in series [4] was found to be 2.2. Besides, the EC50 in series [5] came to 7810 nM; in [6], 15000 nM. Also, the “Liver Microsome Stability (Multiple Species): Rat - % Remaining after 30 min w/NADPH” value in [7] was 0.02%. For the same compound, the “Liver Microsome Stability (Multiple Species): Mouse - % Remaining after 30 min w/NADPH” value in series [8] came out at 0.08%. Further, the “Liver Microsome Stability (Multiple Species): Human - % Remaining after 30 min w/NADPH” value in series [9] is on record as 0.17%. In addition, the “Liver Microsome Stability (Multiple Species): Monkey - % Remaining after 30 min w/NADPH” value in series [10] was 0.11%.

As for `O=C(Nc1nc([C@H]2CCCN2c2ccc(OC3CN(C(=O)C4CC4)C3)cc2)cs1)c1cccn1Cc1ccnc(F)c1` [Compound A109, (R)-N-(4-(1-(4-((1-(cyclopropanecarbonyl)azetidin-3-yl)oxy)phenyl)pyrrolidin-2-yl)thiazol-2-yl)-1-((2-fluoropyridin-4-yl)methyl)-1H-pyrrole-2-carboxamide], the IC50 in [1] came out at 31 nM; in series [2], 302 nM; in [3], 39.2 nM; in [4], 90.7 nM. Further, the “24 hr Dox Inducible TNFaFLGluc 293FRT/TO: TNF/PD1” value in series [2] was found to be 9.75. The “24 hr Dox Inducible IL2FLGluc 293FRT/TO: IL2/PD1” value in [4] stood at 2.9. The results for the EC50 in series [5] and in [6] were 1230 nM and more than 25000 nM, respectively. The “Liver Microsome Stability (Multiple Species): Rat - % Remaining after 30 min w/NADPH” value in [7] was determined as 55.6%. Besides, the “Liver Microsome Stability (Multiple Species): Mouse - % Remaining after 30 min w/NADPH” value in series [8] was 21%. Besides, the “Liver Microsome Stability (Multiple Species): Human - % Remaining after 30 min w/NADPH” value in series [9] was determined as 13.8%. The “Liver Microsome Stability (Multiple Species): Monkey - % Remaining after 30 min w/NADPH” value in [10] is reported as 2.02%.

As for `Cc1cccc(/C=C/c2csc(NC(=O)c3cccn3Cc3ccnc(F)c3)n2)n1` [Compound B59, (E)-1-((2-fluoropyridin-4-yl)methyl)-N-(4-(2-(6-methylpyridin-2-yl)vinyl)thiazol-2-yl)-1H-pyrrole-2-carboxamide], the IC50 turned out to be 467 nM in series [1], 13900 nM in series [2], 2100 nM in series [3] and 6090 nM in series [4]. Also, the “24 hr Dox Inducible TNFaFLGluc 293FRT/TO: TNF/PD1” value in [2] is 29.7. The “24 hr Dox Inducible IL2FLGluc 293FRT/TO: IL2/PD1” value in [4] is recorded as 13. The EC50 in series [5] was determined as 7910 nM; in series [6], 11900 nM. For the same compound, in series [7], the “Liver Microsome Stability (Multiple Species): Rat - % Remaining after 30 min w/NADPH” value was found to be 0.55%. Besides, the “Liver Microsome Stability (Multiple Species): Mouse - % Remaining after 30 min w/NADPH” value in series [8] is reported as 0.64%. Moreover, in [9], the “Liver Microsome Stability (Multiple Species): Human - % Remaining after 30 min w/NADPH” value was 0.32%. The “Liver Microsome Stability (Multiple Species): Monkey - % Remaining after 30 min w/NADPH” value in series [10] was 0.17%.
